Reference: ChEMBL document CHEMBL1201862, “PubChem BioAssay data set” (2004)
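Compound exposure: 48 hours, 5 concentrations, 96-well plates. At the GI50, growth is halved.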 The source made the active and inactive calls. Rule as the data show it: active = GI50 up to about 1.1 µM and inactive = higher.

How the values were obtained:
Experiment in all cases: NCI-60 cell line screen, 48 h
[1] = tested on: T47D
[2] = tested on: RPMI-8226
[3] = tested on: Hs-578T
[4] = tested on: UACC-62
[5] = tested on: BT-549
[6] = tested on: NCI-H522
[7] = tested on: SF-295
[8] = tested on: HCT-116
[9] = tested on: DU-145
[10] = tested on: MOLT-4
[11] = tested on: ACHN
[12] = tested on: UACC-257
[13] = tested on: HCC 2998
[14] = tested on: UO-31
[15] = tested on: KM12
[16] = tested on: HOP-92
[17] = tested on: IGROV-1
[18] = tested on: Malme-3M
[19] = tested on: HL-60
[20] = tested on: DMS-114

Measured: GI50

COc1cc(/C=C2\C[C@H]3[C@@H]4CC=C5C[C@@H](N6CCCC6)CC[C@]5(C)[C@H]4CC[C@]3(C)[C@H]2O)cc(OC)c1OC
inactive: [1] 20 µM | [2] 6.4 µM | [3] 6.11 µM | [4] 18.6 µM | [5] 16.1 µM | [6] 13.4 µM | [7] 13 µM | [8] 13.2 µM | [9] 16.8 µM | [10] 8.11 µM | [11] 15.8 µM | [12] 15 µM | [13] 7.83 µM | [14] 2.8 µM | [15] 7.57 µM | [16] 12.5 µM | [17] 15.9 µM | [18] 11.7 µM | [19] 9.12 µM

COc1ccc2c(c1)OCCCN(C)OC2c1ccccc1 (stereo unspecified)
inactive: [2] > 100 µM | [4] > 100 µM | [7] > 100 µM | [8] > 100 µM | [10] > 100 µM | [11] > 100 µM | [12] > 100 µM | [13] > 100 µM | [14] > 100 µM | [15] > 100 µM | [20] > 100 µM | [17] > 100 µM | [18] > 100 µM

COc1ccc([N+](=O)[O-])c2c(NCCCN(C)C)ccnc12
inactive: [1] 3.52 µM | [2] 1.65 µM | [3] 6.35 µM | [4] 3.61 µM | [5] 2.21 µM | [6] 1.46 µM | [7] 3.61 µM | [8] 3.77 µM | [9] 5.42 µM | [10] 1.8 µM | [11] 2.86 µM | [12] 3.26 µM | [13] 2.84 µM | [14] 4.39 µM | [15] 7 µM | [16] 1.78 µM | [17] 1.66 µM | [18] 2.43 µM | [19] 5.14 µM

Cc1nn2c(=O)c([N+](=O)[O-])c(/C=C/c3ccccc3)nc2s1
inactive: [1] 3.72 µM | [2] 2.43 µM | [3] 7.33 µM | [4] 5.33 µM | [5] 2.37 µM | [6] 3.3 µM | [7] 17.3 µM | [8] 3.42 µM | [9] 3.74 µM | [10] 2.98 µM | [11] 5.32 µM | [12] 8.57 µM | [13] 8.13 µM | [14] 5.83 µM | [15] 3.13 µM | [16] 8.28 µM | [17] 5.51 µM | [18] 13.3 µM | [19] 2.28 µM

COc1cc(CCNC2=CC(=O)c3nc[nH]c3C2=O)ccc1O
inactive: [1] 20.7 µM | [2] 29.4 µM | [3] 25.2 µM | [4] 19.2 µM | [5] 24.7 µM | [6] 22.7 µM | [7] 28.4 µM | [8] 19.6 µM | [9] 20 µM | [10] 32.6 µM | [11] 30.3 µM | [12] 19.8 µM | [13] 20.7 µM | [14] 40.3 µM | [15] 27.3 µM | [16] 25.3 µM | [17] 23.2 µM | [18] 13.1 µM | [19] 25.6 µM

COc1ccc(C2C3=C(COC3=O)OC(C)(C)Oc3cc4c(cc32)OCO4)cc1 (stereo unspecified)
inactive: [1] 26.3 µM | [2] 34.1 µM | [3] 27.4 µM | [4] 25.5 µM | [5] 16.9 µM | [6] 17.4 µM | [7] 35.2 µM | [8] 25.4 µM | [9] 32.5 µM | [10] 23.3 µM | [11] 40 µM | [12] 38.3 µM | [13] 40.5 µM | [14] 28.8 µM | [15] 8.81 µM | [16] 11.8 µM | [17] 29.3 µM | [18] 17.7 µM | [19] 12 µM

C/C(=N/NC(=S)N1CCCCC1)c1ccccc1O
inactive: [1] 8.26 µM | [2] 13.6 µM | [3] 20.1 µM | [4] > 31.6 µM | [5] > 100 µM | [6] 26.5 µM | [7] > 31.6 µM | [8] > 10 µM | [9] > 31.6 µM | [10] > 31.6 µM | [11] > 31.6 µM | [12] > 31.6 µM | [13] > 31.6 µM | [14] > 31.6 µM | [15] 26.1 µM | [16] > 31.6 µM | [17] > 41.2 µM | [18] > 31.6 µM | [19] > 31.6 µM

C[C@H](C(=O)N1C(=O)O[C@@H](c2ccccc2)[C@H]1C)[C@H](c1ccccc1)N(Cc1ccccc1)OC(=O)c1ccccc1
inactive: [1] 15.8 µM | [2] 21.7 µM | [3] 84.5 µM | [4] 28.6 µM | [5] 38.3 µM | [6] 29.1 µM | [7] 21.6 µM | [8] 34.1 µM | [9] 66.1 µM | [10] 22.1 µM | [11] 31.8 µM | [12] 20.9 µM | [13] 21.6 µM | [14] 34.8 µM | [15] 49.3 µM | [16] 24.4 µM | [17] 29.2 µM | [18] > 100 µM | [19] 29 µM
